Where only a bound is given, the exact number is not on record here.

The first assay deals with T1, human Syk (GST-Syk) (Homo sapiens, UniProt P43405).
T1 construct: A cDNA fragment encoding human Syk openreading frame was cloned; made in house; host or cells: Sf21 insect cells (baculovirus, transfer vector pAcG2T)
Nature of the assay: Syk tyrosine kinase inhibitory assay. In kind it is biochemical. The settings on record: Table 11; read-out: Activity grade. An excerpt:
[Syk Tyrosine Kinase Inhibitory Assay]
(1) Preparation of Syk Protein
A cDNA fragment encoding human Syk openreading frame was cloned from total RNA of human Burkitt's lymphoma B cell lines, Raji (American Type Culture Collection), with the use of RT-PCR method. The cDNA fragment was inserted into pAcG2T (Pharmingen, San Diego, Calif.) to construct a baculovirus transfer vector. Then the vector, together with the linearized baculovirus (BaculoGold™, Pharmingen), was used to transfect Sf21 cells (Invitrogen, San Diego, Calif.).
Generated recombinant baculovirus was cloned and amplified in Sf21 cells. Sf21 cells were infected with this amplified high titer virus to produce a chimeric protein of Syk kinase fused by glutathione-S-transferase (GST).
The resulting GST-Syk was purified with the use of glutathione column (Amersham Pharmacia Biotech AB, Uppsala, Sweden) according to the manufacturer's instruction.
(2) Synthesize of a Peptide
Next, a peptide fragment of 30 residues including two tyrosine residues, […], was synthesized by a peptide synthesizer. The N-terminal of the fragment was then biotinylated to obtain biotinylated activation loop peptide (AL).
(3) The Measurement of Syk Tyrosine Kinase Activity
All reagents were diluted with the Syk kinase assay buffer (50 mM Tris-HCl (pH 8.0), 10 mM MgCl2, 0.1 mM Na3VO4, 0.1% BSA, 1 mM DTT). First, a mixture (35 μl) including […] of GST-Syk and 0.5 μg of AL was put in each well in 96-well plates. Then 5 μl of a test compound in the presence of 2.5% dimethylsulfoxide (DMSO) was added to each well. To this mixture was added […] (10 μl) to initiate the kinase reaction. The final reaction mixture (50 μl) consists of 0.65 nM GST-Syk, 3 μM AL, 30 μM ATP, a test compound, 0.25% DMSO, and a Syk kinase assay buffer.
The mixture was incubated for 1 hr at room temperature, and the reaction was terminated by the addition of 120 μl of termination buffer (50 mM Tris-HCl (pH 8.0), 10 mMEDTA, 500 mM NaCl, 0.1% BSA). The mixture was transferred to streptavidin-coated plates and incubated for 30 min at room temperature to combine biotin-AL to the plates. After washing the plates with Tris-buffered saline (TBS) (50 mM Tris-HCl (pH 8.0), 138 mM NaCl, 2.7 mM KCl) containing 0.05% Tween-20 for 3 times, 100 μl of antibody solution consisting of 50 mM Tris-HCl (pH 8.0), 138 mM NaCl, 2.7 mM KCl, 1% BSA, 60 ng/ml anti-phosphotyrosine monoclonal antibody, 4G10 (Upstate Biotechnology), which is labeled with europium by Amersham Pharmacia's kit in advance, was added and incubated at room temperature for 60 min. After washing, 100 μl of enhancement solution (Amersham pharmacia Biotech) was added and then time-resolved fluorescence was measured by multi-label counter ARVO (Wallac Oy, Finland) at 340 nm for excitation and 615 nm for emission with 400 msec of delay and 400 msec of window.
Turning to `COc1ccc(Nc2nc(-c3ccc(N(C)CCCN4CCOCC4)c(OC)c3)cc3nccn23)cc1` [Example 12-55], the IC50 was less than 500 nM.
As for `COc1ccc(-c2cc3nccn3c(Nc3cc(OC)c(OC)c(OC)c3)n2)cc1OC` [Example 12-14], the IC50 is less than 500 nM.
Still for that read-out and setting: with `COCCN(C)c1ccc(-c2cc3nccn3c(Nc3ccc(C)cc3)n2)cc1OC` [Example 12-42] the figure was less than 500 nM.
On the same count and under the same terms, with `CCOCCOc1ccc(-c2cc3nccn3c(Nc3ccccc3)n2)cc1OC` [Example 12-20] the figure was less than 500 nM.
For `CCOc1ccc(-c2cc3nccn3c(Nc3ccccc3)n2)cc1OCC` [Example 12-23], the IC50 was less than 500 nM.
In the case of `COc1ccc(-c2cc3nccn3c(Nc3ccccc3)n2)cc1OC(C)=O` [Example 12-17], the IC50 is less than 500 nM.
On the same count and under the same terms, with `COc1cc(-c2cc3nccn3c(Nc3ccc(C)cc3)n2)ccc1N1CCOCC1` [Example 12-47] the figure was less than 500 nM.

The assay is the same for the next values; noted with them: Table 13; read-out: Activity grade.
With `COc1ccc(-c2cc3nccn3c(Oc3cccc(Br)c3)n2)cc1OC` [Example 14-5], the IC50 lay in the range of 500 to 2000 nM.
Turning to `COc1ccc(-c2cc3nccn3c(SCCNC(=O)OC(C)(C)C)n2)cc1OC` [Example 14-24], the IC50 fell in the range of 500 to 2000 nM.
Same read-out and setting: the result for `COc1ccc(-c2cc3nccn3c(SCC(C)C)n2)cc1OC` [Example 14-22] reads less than 500 nM.
Still for that read-out and setting: with `COc1ccc(-c2cc3nccn3c(SCCN(C)C)n2)cc1OC` [Example 14-27] the figure was less than 500 nM; with `COc1ccc(-c2cc3nccn3c(SCc3ccc(F)cc3)n2)cc1OC` [Example 14-30], 500 to 2000 nM.

Staying with this assay, now noted: Table 16; read-out: Activity grade.
Take `CCSc1nc(-c2ccc(OC)c(NCCCN(C)C)c2)cc2nccn12` [Example 17-6]: the IC50 was less than 500 nM.
On the same count and under the same terms, with `CCSc1nc(-c2ccc(OC)c(N(C)CCCN(C)C)c2)cc2nccn12` [Example 17-5] the figure was 500 to 2000 nM; with `CCSc1nc(-c2ccc(NCc3ccccc3)c(OC)c2)cc2nccn12` [Example 17-9], 2000 to 10000 nM.

Still in this assay, the particulars now being: Table 17; IC50 classes; read-out: Activity grade.
Turning to `COc1ccc(-c2cc3nccn3c(Sc3ccc(CCc4nnn[nH]4)cc3)n2)cc1OC` [Example 24], the IC50 was less than 500 nM.
Still for that read-out and setting: the result for `COc1ccc(-c2cc3nccn3c(Cc3ccccc3)n2)cc1OC` [Example 35] reads 2000 to 10000 nM.
Still for that read-out and setting: with `CCSc1nc(-c2ccc(OC)c(OC)c2)cc2nc(C(N)=O)cn12` [Example 28] the figure was 500 to 2000 nM.

Still in this assay, the particulars now being: in vitro; compounds as yielded by solid phase synthesis, purity about 40 to 90%.
On to `COc1ccc(-c2cc3nccn3c(N3CCN(c4ccc(C(F)(F)F)cn4)CC3)n2)cc1OC` [Example 9-50], for which the “Activity grade (IC50 class)” value was “C-D”.

The same assay, now with this note: in vitro; compounds as yielded by solid phase synthesis, purity about 40 to 90%; read-out: Activity grade (IC50 class).
Regarding `COc1ccc(-c2cc3nccn3c(NC3CCC(C(=O)O)CC3)n2)cc1OC` (centres unmarked) [Example 9-31], the IC50 was 500 to 2000 nM.
With `CCSc1nc(-c2ccc(OCCCN3CCSCC3)c(OC)c2)cc2nccn12` [Example 5-9], the IC50 is less than 500 nM.
In the case of `CNC(=O)c1cccc(Nc2nc(-c3ccc(OC)c(OC)c3)cc3nccn23)c1` [Example 11-72], the IC50 is less than 500 nM.
In the case of `COc1ccc(-c2cc3nccn3c(Nc3ccc(CC#N)cc3)n2)cc1OC` [Example 11-63], the IC50 is less than 500 nM.
Still for that read-out and setting: with `COc1ccc(-c2cc3nccn3c(Nc3ccc(CCCC(=O)O)cc3)n2)cc1OC` [Example 11-21] the figure was less than 500 nM; with `COc1ccc(-c2cc3nccn3c(N(C)c3ccccc3)n2)cc1OC` [Example 11-18], less than 500 nM.
`COc1ccc(Nc2nc(-c3ccc(N4CCOCC4)c(OC)c3)cc3nccn23)c(C(N)=O)c1` [Example 9-98]: the IC50 is less than 500 nM.
For `COc1ccc(-c2cc3nccn3c(Nc3cccc(C(C)=O)c3)n2)cc1OC` [Example 11-59], the IC50 is less than 500 nM.
For the compound `CCSc1nc(-c2ccc([N+](=O)[O-])c(OC)c2)cc2nccn12` [Example 8-8], the IC50 is 2000 to 10000 nM.
On the same count and under the same terms, with `COc1ccc(-c2cc3nccn3c(Sc3cccc(N)c3)n2)cc1OC` [Example 13-3] the figure was less than 500 nM.
On the same count and under the same terms, with `COc1ccc(-c2cc3nccn3c(Sc3c(C)cccc3C)n2)cc1OC` [Example 13-9] the figure was 2000 to 10000 nM; with `COc1ccc(-c2cc3ncnn3c(Nc3ccc(CCCC(=O)O)cc3C(N)=O)n2)cc1OC` [Example 11-106], less than 500 nM.
Still for that read-out and setting: the result for `COc1ccc(-c2cc3nccn3c(NCCN)n2)cc1OC` [Example 9-81] reads 500 to 2000 nM.
As for `CNC(=O)c1ccccc1Nc1nc(-c2ccc(OC)c(OC)c2)cc2nccn12` [Example 11-99], the IC50 was less than 500 nM.
On the same count and under the same terms, the result for `COc1ccc(-c2cc3nccn3c(N3CCC(C)CC3)n2)cc1OC` [Example 9-62] reads 2000 to 10000 nM; that for `CCOCCOc1ccc(-c2cc3nccn3c(SCC)n2)cc1OCCOCC` [Example 6-2], 500 to 2000 nM; that for `CCSc1nc(-c2ccc3c(c2)OCO3)cc2nccn12` [Example 1-3], 500 to 2000 nM.
The same measure, in the same setting: with `COc1ccc(-c2cc3nccn3c(Nc3cc([N+](=O)[O-])ccc3C(N)=O)n2)cc1OC` [Example 11-109] the figure was less than 500 nM.
Same read-out and setting: the result for `CCOC(=O)CCSc1nc(-c2ccc(OC)c(OC)c2)cc2nccn12` [Example 9-28] reads less than 500 nM; that for `CCOc1ccc(-c2cc3nccn3c(SCC)n2)cc1OCC` [Example 6-1], less than 500 nM; that for `CCSc1nc(-c2ccc3c(c2)OCCO3)cc2nccn12` [Example 1-13], 500 to 2000 nM.
In the case of `COc1ccc(Nc2nc(-c3ccc(OC)c(OC)c3)cc3nccn23)c(C(=O)O)c1` [Example 11-75], the IC50 is less than 500 nM.
On to `COC(=O)CSc1nc(-c2ccc(OC)c(OC)c2)cc2nccn12` [Example 9-88], for which the IC50 was less than 500 nM.
On the same count and under the same terms, with `COc1ccc(Nc2nc(-c3ccc(OC)c(OC)c3)cc3nccn23)c(C)c1` [Example 11-2] the figure was less than 500 nM.
On the same count and under the same terms, the result for `COc1ccc(Nc2nc(-c3ccc(OC)c(OC)c3)cc3nccn23)c(C(N)=O)c1` [Example 11-96] reads less than 500 nM; that for `COC(=O)c1cc(Br)ccc1Nc1nc(-c2ccc(OC)c(OC)c2)cc2nccn12` [Example 11-86], less than 500 nM; that for `COc1ccc(N(C)c2nc(-c3ccc(OC)c(OC)c3)cc3nccn23)cc1` [Example 11-49], 500 to 2000 nM.
On the same count and under the same terms, with `CCSc1nc(-c2ccc(O)c(O)c2)cc2nccn12` [material for Example 6, 4-(5-Ethylsulfanyl-imidazo[1,2-c]pyrimidin-7-yl)-benzene-1,2-diol] the figure was 2000 to 10000 nM; with `COc1ccc(-c2cc3nccn3c(N3CCc4ccccc43)n2)cc1OC` [Example 9-13], 500 to 2000 nM; with `COc1ccc(-c2cc3nccn3c(Nc3cccc(N(C)C)c3)n2)cc1OC` [Example 11-81], less than 500 nM.
Turning to `COc1ccc(-c2cc3ncnn3c(Nc3ccc(CCC(=O)O)cc3)n2)cc1OC` [Example 9-20], the IC50 is less than 500 nM.
On to `COC(=O)C1CCc2cc(Sc3nc(-c4ccc(OC)c(OC)c4)cc4nccn34)ccc2C1` (centres unmarked) [Example 13-23], for which the IC50 fell in the range of 500 to 2000 nM.
Same read-out and setting: the result for `COC(=O)C1CCN(c2nc(-c3ccc(OC)c(OC)c3)cc3nccn23)CC1` [Example 9-67] reads 2000 to 10000 nM.
In the case of `CCSc1nc(-c2ccc(SC)c(S(=O)(=O)N3CCN(CCO)CC3)c2)cc2nccn12` [Example 2-4], the IC50 lay in the range of 500 to 2000 nM.
For the compound `COc1ccc(-c2cc3nccn3c(N3CCC(c4ccc(O)cc4)CC3)n2)cc1OC` [Example 9-60], the IC50 is 500 to 2000 nM.
Still for that read-out and setting: the result for `COC(=O)[C@H](Cc1ccc(O)cc1)Nc1nc(-c2ccc(OC)c(OC)c2)cc2nccn12` [Example 9-2] reads 2000 to 10000 nM; that for `COc1ccc(-c2cc3nccn3c(Nc3ccc(S(=O)(=O)N4CCCC4)cc3)n2)cc1OC` [Example 11-115], less than 500 nM.
On the same count and under the same terms, the result for `CCSc1nc(-c2ccc(OC)c(OC(C)=O)c2)cc2nccn12` [Example 4-7] reads less than 500 nM; that for `CCSc1nc(-c2ccc(OC)c(OCCN3CCOCC3)c2)cc2nccn12` [Example 5-12], 500 to 2000 nM.
The same measure, in the same setting: the result for `COc1ccc(-c2cc3nccn3c(Sc3cccc(CC(O)O)c3)n2)cc1OC` [Example 13-20] reads less than 500 nM.
